One test relates to C. krusei ATCC 6258. The experiment in a line: Anti-Fungal Activity Assay (broth microtiter MIC). The format is cell-based. The note with it: 3 replicates, test compounds read at 48 h. The procedure:
(§1) Compounds of the present invention were evaluated in an Anti-Fungal Activity Assay. An exemplary procedure for the assay, which measures the susceptibility of various Candida species to anti-fungal compounds, follows. Compounds to be tested (including fluconazole and amphotericin B) were dissolved in DMSO to obtain a solution having a concentration of 1 mg/mL. […] All species were grown from frozen stock by directly plating on to freshly prepared Sabouraud Dextrose agar (BD, Difco) and incubated overnight in ambient air at 35° C. for 24 h. A direct suspension was prepared in RPMI 1640+MOPS (Lonza, Biowhittaker) by taking individual colonies from the overnight cultures using sterile swabs soaked in sterile saline. The concentration of the suspension was determined using pre-determined standard curves. […] The original CLSI guidelines focused on reading Candida MICs after 48 h of incubation. As reading after only 24 h offers a clear advantage of patient care, QC limits are being established for all drugs at 24 h. That being said there are no known interpretive breakpoints for amphotericin B at 24 h and the current fluconazole interpretive breakpoints are based on a 48 h reading. The MIC breakpoints for the Pharmaron test compounds were recorded at 48 h, and for the soraphen the 24 h time-point was added. All MIC determinations were achieved by visually comparing the growth found in the antibiotic challenged wells to that of the growth control.

In test [1] the test system is C. parapsilosis ATCC 22019. The experiment in a line: Anti-Fungal Activity Assay (broth microtiter MIC). The format is cell-based. The note with it: 3 replicates, test compounds read at 48 h. The procedure: as §1
The next test deals with C. albicans ATCC 90028. The experiment in a line: Anti-Fungal Activity Assay (broth microtiter MIC). In kind it is cell-based. The note with it: 3 replicates, test compounds read at 48 h. The protocol: as §1
The next test addresses ACC2 (Homo sapiens, UniProt O00763). The test is described as follows: In vitro ACC2 inhibition assay (ADP-Glo). In kind it is biochemical. The note with it: read-out: ACC2. Summed up: (§2)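 Enzyme (human ACC1 or ACC2) and compound, serially diluted 1:3 over 11 points from a 600 uM DMSO stock, were preincubated 15 min before substrate addition.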
(In general: In ADP-Glo the light output rises with the ADP produced.)

In the next test the target is ACC1 (Homo sapiens, UniProt Q13085). The test is described as follows: In vitro ACC1 inhibition assay (ADP-Glo). In kind it is biochemical. Conditions: read-out: ACC1. Summed up:
as §2

Where [2] appears, read: Lodderomyces parapsilosis, ATCC22019, 48 h, read-out: MIC.
Where [3] appears, read: Candida albicans, ATCC90028, 48 h, read-out: MIC.

Each structure is given as a SMILES string. Values after ≈ are worked out from the molar mass of the structure shown. Values joined by “and” are separate entries in the source; they are usually repeats but may differ in a detail not shown here. Equal values may be shown once. Read-outs that look alike come from different tables or passages of the source.

Chain of ACC2 (O00763 whole entry, species assumed): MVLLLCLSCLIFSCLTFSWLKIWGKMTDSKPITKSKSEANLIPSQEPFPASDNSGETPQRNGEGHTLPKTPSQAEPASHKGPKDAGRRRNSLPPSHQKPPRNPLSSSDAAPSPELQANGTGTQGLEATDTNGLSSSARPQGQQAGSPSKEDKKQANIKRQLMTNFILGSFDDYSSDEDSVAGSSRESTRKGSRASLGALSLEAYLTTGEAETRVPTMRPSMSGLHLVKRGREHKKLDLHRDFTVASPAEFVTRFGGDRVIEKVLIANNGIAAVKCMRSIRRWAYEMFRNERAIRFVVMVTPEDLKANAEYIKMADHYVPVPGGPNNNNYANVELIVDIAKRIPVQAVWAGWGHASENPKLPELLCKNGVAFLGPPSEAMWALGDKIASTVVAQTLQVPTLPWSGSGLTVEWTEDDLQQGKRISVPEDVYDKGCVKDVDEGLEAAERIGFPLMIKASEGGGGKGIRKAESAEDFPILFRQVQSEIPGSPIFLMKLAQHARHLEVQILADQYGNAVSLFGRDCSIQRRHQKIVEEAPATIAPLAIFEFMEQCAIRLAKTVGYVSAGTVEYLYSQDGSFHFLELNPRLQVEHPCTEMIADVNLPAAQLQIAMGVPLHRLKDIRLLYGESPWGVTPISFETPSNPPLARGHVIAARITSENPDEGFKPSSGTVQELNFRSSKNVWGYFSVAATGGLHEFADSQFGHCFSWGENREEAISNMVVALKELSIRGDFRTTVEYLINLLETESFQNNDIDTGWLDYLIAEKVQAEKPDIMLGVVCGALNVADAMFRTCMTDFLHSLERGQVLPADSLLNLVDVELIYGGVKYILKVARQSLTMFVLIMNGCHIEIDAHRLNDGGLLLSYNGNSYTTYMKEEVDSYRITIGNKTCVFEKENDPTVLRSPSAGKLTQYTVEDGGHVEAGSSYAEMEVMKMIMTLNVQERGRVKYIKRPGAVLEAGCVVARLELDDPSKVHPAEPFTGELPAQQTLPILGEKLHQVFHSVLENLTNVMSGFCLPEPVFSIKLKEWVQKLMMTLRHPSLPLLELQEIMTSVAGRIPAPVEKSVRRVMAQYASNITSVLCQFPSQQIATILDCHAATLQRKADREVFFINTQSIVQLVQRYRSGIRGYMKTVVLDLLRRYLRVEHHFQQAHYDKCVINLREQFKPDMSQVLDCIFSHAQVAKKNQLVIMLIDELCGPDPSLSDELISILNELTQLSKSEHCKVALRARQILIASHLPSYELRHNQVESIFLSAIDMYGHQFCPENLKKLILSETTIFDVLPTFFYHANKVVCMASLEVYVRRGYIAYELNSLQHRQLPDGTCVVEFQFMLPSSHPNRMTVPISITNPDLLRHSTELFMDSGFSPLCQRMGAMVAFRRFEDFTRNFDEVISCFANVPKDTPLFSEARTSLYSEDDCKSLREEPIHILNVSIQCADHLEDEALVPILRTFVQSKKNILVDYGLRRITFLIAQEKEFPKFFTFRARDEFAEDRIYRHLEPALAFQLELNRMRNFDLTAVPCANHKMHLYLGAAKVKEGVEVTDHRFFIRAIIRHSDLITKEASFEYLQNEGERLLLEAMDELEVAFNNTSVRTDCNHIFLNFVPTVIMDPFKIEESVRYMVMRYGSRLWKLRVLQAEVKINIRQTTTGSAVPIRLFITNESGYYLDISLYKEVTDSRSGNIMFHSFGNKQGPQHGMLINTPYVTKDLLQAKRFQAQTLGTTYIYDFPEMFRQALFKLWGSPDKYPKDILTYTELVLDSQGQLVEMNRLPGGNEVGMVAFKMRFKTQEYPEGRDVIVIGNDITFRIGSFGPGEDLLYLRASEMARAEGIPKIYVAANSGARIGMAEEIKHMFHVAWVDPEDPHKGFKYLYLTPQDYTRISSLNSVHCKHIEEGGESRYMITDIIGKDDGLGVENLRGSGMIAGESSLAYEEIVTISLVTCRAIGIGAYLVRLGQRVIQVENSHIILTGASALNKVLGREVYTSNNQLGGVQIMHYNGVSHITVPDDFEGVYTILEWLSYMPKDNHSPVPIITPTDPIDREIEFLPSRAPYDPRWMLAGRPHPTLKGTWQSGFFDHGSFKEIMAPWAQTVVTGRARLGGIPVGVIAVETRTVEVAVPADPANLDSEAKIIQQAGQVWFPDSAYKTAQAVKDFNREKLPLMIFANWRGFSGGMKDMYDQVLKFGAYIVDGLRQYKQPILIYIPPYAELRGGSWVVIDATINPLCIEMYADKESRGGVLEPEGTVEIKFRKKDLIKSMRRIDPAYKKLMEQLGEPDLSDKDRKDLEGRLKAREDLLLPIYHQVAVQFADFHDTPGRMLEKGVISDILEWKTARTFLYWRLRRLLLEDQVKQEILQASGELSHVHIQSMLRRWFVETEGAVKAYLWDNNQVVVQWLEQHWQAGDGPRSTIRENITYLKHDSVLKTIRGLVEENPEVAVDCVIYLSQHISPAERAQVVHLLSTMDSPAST

Turning to `C[C@@H]1[C@H](O)[C@@H](C)/C=C/C=C/C=C/C=C/C=C/C=C/C=C/[C@H](O[C@@H]2O[C@H](C)[C@@H](O)[C@H](N)[C@@H]2O)C[C@@H]2O[C@](O)(C[C@@H](O)C[C@@H](O)[C@H](O)CC[C@@H](O)C[C@@H](O)CC(=O)O[C@H]1C)C[C@H](O)[C@H]2C(=O)O` [Amph. B, amphotericin B, reference compound], the MIC (usually the smallest concentration in the dilution series that meets the test's criterion for growth inhibition) was 1 µg/mL (≈ 1.08 µM) with C. krusei ATCC 6258; 1 µg/mL (≈ 1.08 µM) in test [1]; 0.5 ug/mL (2×) and 1 ug/mL with C. albicans ATCC 90028.
On to `OC(Cn1cncn1)(Cn1cncn1)c1ccc(F)cc1F` [Fluc., fluconazole, reference compound], for which the minimum inhibitory concentration (MIC) against C. krusei ATCC 6258 was 32 ug/mL (2×) and 2 ug/mL; in test [1], 2 µg/mL and 4 µg/mL; in test [1] (setting [2]), 2 µg/mL (≈ 6.53 µM); against C. albicans ATCC 90028, 1 µg/mL and 2 µg/mL; with C. albicans ATCC 90028 (setting [3]), 1 µg/mL (≈ 3.27 µM).
Turning to `Cc1c(-c2ncco2)sc2c1c(=O)n(C(C)(C)C(=O)O)c(=O)n2C[C@H](Oc1ccc(-n2ccnc2)cc1)c1ccccc1` [I-160, 2-[1-[(2R)-2-[4-(1H-imidazol-1-yl)phenoxy]-2-phenylethyl]-5-methyl-6-(1,3-oxazol-2-yl)-2,4-dioxo-1H,2H,3H,4H-thieno[2,3-d]pyrimidin-3-yl]-2-methylpropanoic acid], the MIC in the test with C. krusei ATCC 6258 was >64 µg/mL; in the test on C. krusei ATCC 6258 (Pichia kudriavzevii, ATCC6258, 48 h, read-out: MIC), > 64 µg/mL; in test [1] it was >64 µg/mL; in test [1] (setting [2]), > 64 µg/mL; with C. albicans ATCC 90028, >64 µg/mL; in the test on C. albicans ATCC 90028 (setting [3]) it was > 64 µg/mL. Further, the IC50 on ACC2 and at ACC1 was < 100 nM throughout.
Take `Cc1c(-c2ncco2)sc2c1c(=O)n(C(C)(C)C(N)=O)c(=O)n2C[C@H](OC1CCOCC1)c1ccccc1OC(F)F` [I-274, 2-[1-[(2R)-2-[2-(difluoromethoxy)phenyl]-2-(oxan-4-yloxy)ethyl]-5-methyl-6-(1,3-oxazol-2-yl)-2,4-dioxo-1H,2H,3H,4H-thieno[2,3-d]pyrimidin-3-yl]-2-methylpropanamide]: the IC50 on ACC2 and on ACC1 was < 100 nM in each case.
Turning to `COc1ccccc1[C@H](Cn1c(=O)n(C(C)(C)C(=O)O)c(=O)c2c(C)c(-c3ncco3)sc21)O[C@H]1CC[C@H](O)CC1` [I-277, 2-[1-[(2R)-2-[(4-hydroxycyclohexyl)oxy]-2-(2-methoxyphenyl)ethyl]-5-methyl-6-(1,3-oxazol-2-yl)-2,4-dioxo-1H,2H,3H,4H-thieno[2,3-d]pyrimidin-3-yl]-2-methylpropanoic acid], the IC50 at ACC2 and at ACC1 was < 100 nM throughout.
Consider `COc1ccccc1[C@H](Cn1c(=O)n(C(C)(C)C(N)=O)c(=O)c2c(C)c(-c3ncco3)sc21)O[C@H]1CC[C@@H](O)CC1` [I-279, 2-[1-[(2R)-2-[(4-hydroxycyclohexyl)oxy]-2-(2-methoxyphenyl)ethyl]-5-methyl-6-(1,3-oxazol-2-yl)-2,4-dioxo-1H,2H,3H,4H-thieno[2,3-d]pyrimidin-3-yl]-2-methylpropanamide], for which the IC50 on ACC2 and on ACC1 was < 100 nM in each case.
Take `Cc1ccccc1[C@H](Cn1c(=O)n(C(C)(C)C(=O)O)c(=O)c2c(C)c(-c3ncco3)sc21)OC1CCOCC1` [I-282, 2-methyl-2-[5-methyl-1-[(2R)-2-(2-methylphenyl)-2-(oxan-4-yloxy)ethyl]-6-(1,3-oxazol-2-yl)-2,4-dioxo-1H,2H,3H,4H-thieno[2,3-d]pyrimidin-3-yl]propanoic acid]: the IC50 at ACC2 and at ACC1 was < 100 nM each time.
For `COc1ccccc1[C@H](Cn1c(=O)n(CC(=O)O)c(=O)c2c(C)c(-c3ncco3)sc21)OC1CCOCC1` [I-286, 2-[1-[(2R)-2-(2-methoxyphenyl)-2-(oxan-4-yloxy)ethyl]-5-methyl-6-(1,3-oxazol-2-yl)-2,4-dioxo-1H,2H,3H,4H-thieno[2,3-d]pyrimidin-3-yl]acetic acid], the IC50 at ACC2 and on ACC1 was < 100 nM throughout.
`COc1ccccc1[C@H](Cn1c(=O)n(CC(C)(C)O)c(=O)c2c(C)c(-c3ncco3)sc21)OC1CCOCC1` [I-287, 3-(2-hydroxy-2-methylpropyl)-1-[(2R)-2-(2-methoxyphenyl)-2-(oxan-4-yloxy)ethyl]-5-methyl-6-(1,3-oxazol-2-yl)-1H,2H,3H,4H-thieno[2,3-d]pyrimidine-2,4-dione]: the IC50 on ACC2 and on ACC1 was < 100 nM throughout.
Consider `COc1ccccc1[C@H](Cn1c(=O)n(CC(N)=O)c(=O)c2c(C)c(-c3ncco3)sc21)OC1CCOCC1` [I-288], for which the IC50 at ACC2 and at ACC1 was < 100 nM in each case.
Take `COc1ccccc1[C@H](Cn1c(=O)n(Cc2nnc[nH]2)c(=O)c2c(C)c(-c3ncco3)sc21)OC1CCOCC1` [I-289, 1-[(2R)-2-(2-methoxyphenyl)-2-(oxan-4-yloxy)ethyl]-5-methyl-6-(1,3-oxazol-2-yl)-3-(4H-1,2,4-triazol-3-ylmethyl)-1H,2H,3H,4H-thieno[2,3-d]pyrimidine-2,4-dione]: the IC50 on ACC2 and at ACC1 was < 100 nM throughout.
With `COc1ccccc1[C@H](Cn1c(=O)n(C(C)(C)CO)c(=O)c2c(C)c(-c3ncco3)sc21)OC1CCOCC1` [I-290, 3-(1-hydroxy-2-methylpropan-2-yl)-1-[(2R)-2-(2-methoxyphenyl)-2-(oxan-4-yloxy)ethyl]-5-methyl-6-(1,3-oxazol-2-yl)-1H,2H,3H,4H-thieno[2,3-d]pyrimidine-2,4-dione], the IC50 at ACC2 and on ACC1 was < 100 nM in each case.
Consider `Cc1c(-c2ncco2)sc2c1c(=O)n(C(C)(C)C(=O)O)c(=O)n2C[C@H](OC1CCOCC1)c1ccccc1OC(C)C` [I-291, 2-methyl-2-[5-methyl-1-[(2R)-2-(oxan-4-yloxy)-2-[2-(propan-2-yloxy)phenyl]ethyl]-6-(1,3-oxazol-2-yl)-2,4-dioxo-1H,2H,3H,4H-thieno[2,3-d]pyrimidin-3-yl]propanoic acid], for which the IC50 on ACC2 and on ACC1 was < 100 nM in each case.
Turning to `Cc1c(-c2ncco2)sc2c1c(=O)n(C(C)(C)C(N)=O)c(=O)n2C[C@H](OC1CCOCC1)c1ccccc1OC(C)C` [I-292, 2-methyl-2-[5-methyl-1-[(2R)-2-(oxan-4-yloxy)-2-[2-(propan-2-yloxy)phenyl]ethyl]-6-(1,3-oxazol-2-yl)-2,4-dioxo-1H,2H,3H,4H-thieno[2,3-d]pyrimidin-3-yl]propanamide], the IC50 on ACC2 and on ACC1 was < 100 nM in each case.
For the compound `Cc1c(-c2ncco2)sc2c1c(=O)n(C(C)(C)C(=O)O)c(=O)n2C[C@H](O[C@H]1CC[C@H](O)CC1)c1ccccc1OC(C)C` [I-294, 2-(1-((R)-2-(((1r,4R)-4-hydroxycyclohexyl)oxy)-2-(2-isopropoxyphenyl)ethyl)-5-methyl-6-(oxazol-2-yl)-2,4-dioxo-1,2-dihydrothieno[2,3-d]pyrimidin-3(4H)-yl)-2-methylpropanoic acid], the IC50 at ACC2 and at ACC1 was < 100 nM each time.
Take `Cc1c(-c2ncco2)sc2c1c(=O)n(C(C)(C)C(=O)O)c(=O)n2C[C@H](O[C@H]1CC[C@@H](O)CC1)c1ccccc1OC(C)C` [I-295, 2-(1-((R)-2-(((1s,4S)-4-hydroxycyclohexyl)oxy)-2-(2-isopropoxyphenyl)ethyl)-5-methyl-6-(oxazol-2-yl)-2,4-dioxo-1,2-dihydrothieno[2,3-d]pyrimidin-3(4H)-yl)-2-methylpropanoic]: the IC50 on ACC2 and on ACC1 was < 100 nM each time.
For `Cc1c(-c2ncco2)sc2c1c(=O)n(C(C)(C)C(=O)O)c(=O)n2C[C@H](OC1CCOCC1)c1ccccc1COC(C)C` [I-297, 2-methyl-2-[5-methyl-1-[(2R)-2-(oxan-4-yloxy)-2-[2-[(propan-2-yloxy)methyl]phenyl]ethyl]-6-(1,3-oxazol-2-yl)-2,4-dioxo-1H,2H,3H,4H-thieno[2,3-d]pyrimidin-3-yl]propanoic acid], the IC50 at ACC2 and on ACC1 was < 100 nM in each case.
As for `Cc1c(-c2ncco2)sc2c1c(=O)n(C(C)(C)C(=O)O)c(=O)n2C[C@@H](OC1CCOCC1)c1ccccc1CC#N` [I-303, (S)-2-(1-(2-(2-(cyanomethyl)phenyl)-2-((tetrahydro-2H-pyran-4-yl)oxy)ethyl)-5-methyl-6-(oxazol-2-yl)-2,4-dioxo-1,2-dihydrothieno[2,3-d]pyrimidin-3(4H)-yl)-2-methylpropanoic acid], the IC50 at ACC2 and on ACC1 was < 100 nM in each case.

Source of the values: patent US9453026B2, “ACC inhibitors and uses thereof” (Gilead Apollo, Inc., priority 2011, dated 2016).
